Experimental data: ChEMBL document CHEMBL2407027, “(3R,4S,5R,6R,7S)-3,4,5,7-Tetrahydroxyconidine, an azetidine analogue of 6,7-diepicastanospermine and a conformationally constrained d-deoxyaltronojirimycin, from l-arabinose” (Bioorg Med Chem, 2013)

How the values were obtained:
Rhizopus = test: Inhibition of rhizopus amyloglucosidase at 1000 uM
Aspergillus niger [1] = test: Inhibition of Aspergillus niger amyloglucosidase at 1000 uM
Sus scrofa = organism: Sus scrofa; test: Inhibition of porcine kidney alpha,alpha-trehalase at 1000 uM
Escherichia coli = test: Inhibition of Escherichia coli beta-glucuronidase at 1000 uM
[2] = biological target: T1, Beta-glucuronidase (Bos taurus) (UniProt A3KMY8); test: Inhibition of bovine liver beta-glucuronidase at 1000 uM
T1 sequence (whole entry): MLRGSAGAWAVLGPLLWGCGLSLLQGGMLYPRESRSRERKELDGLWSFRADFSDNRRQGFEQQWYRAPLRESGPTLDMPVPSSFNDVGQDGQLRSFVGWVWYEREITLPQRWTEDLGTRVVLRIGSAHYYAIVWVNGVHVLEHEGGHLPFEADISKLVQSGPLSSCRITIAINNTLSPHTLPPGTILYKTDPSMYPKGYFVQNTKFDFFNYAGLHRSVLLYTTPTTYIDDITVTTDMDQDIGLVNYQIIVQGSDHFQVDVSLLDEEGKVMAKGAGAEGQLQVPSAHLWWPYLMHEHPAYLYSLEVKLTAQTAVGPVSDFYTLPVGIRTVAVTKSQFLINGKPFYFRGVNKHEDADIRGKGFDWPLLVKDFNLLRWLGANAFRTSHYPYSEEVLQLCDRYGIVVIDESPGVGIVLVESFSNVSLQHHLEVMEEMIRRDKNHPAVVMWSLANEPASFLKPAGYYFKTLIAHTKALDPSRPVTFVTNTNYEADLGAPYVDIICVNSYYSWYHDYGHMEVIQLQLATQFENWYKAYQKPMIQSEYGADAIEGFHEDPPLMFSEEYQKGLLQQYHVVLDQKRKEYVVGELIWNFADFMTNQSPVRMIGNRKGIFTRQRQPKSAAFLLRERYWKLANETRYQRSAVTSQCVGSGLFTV

Penicillium decumbens = test: Inhibition of Penicillium decumbens alpha-L-rhamnosidase at 1000 uM
[3] = biological target: T2, Tissue alpha-L-fucosidase (Bos taurus, UniProt Q2KIM0); test: Inhibition of bovine alpha-L-fucosidase
T2 sequence (Q2KIM0 whole entry): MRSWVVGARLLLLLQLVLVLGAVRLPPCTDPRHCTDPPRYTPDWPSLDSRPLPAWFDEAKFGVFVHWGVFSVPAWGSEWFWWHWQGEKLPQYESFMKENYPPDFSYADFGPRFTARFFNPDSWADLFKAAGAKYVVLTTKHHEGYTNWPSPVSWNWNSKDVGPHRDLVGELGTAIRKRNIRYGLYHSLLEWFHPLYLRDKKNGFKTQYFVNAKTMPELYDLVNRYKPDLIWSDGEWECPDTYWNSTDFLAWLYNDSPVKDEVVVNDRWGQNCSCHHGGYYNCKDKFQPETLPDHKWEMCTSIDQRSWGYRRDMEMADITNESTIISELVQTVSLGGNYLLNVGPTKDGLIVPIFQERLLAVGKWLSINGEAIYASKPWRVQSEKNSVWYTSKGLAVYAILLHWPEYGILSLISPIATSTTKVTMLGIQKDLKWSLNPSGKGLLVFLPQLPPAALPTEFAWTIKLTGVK

Helix pomatia = test: Inhibition of snail beta-mannosidase at 1000 uM
[4] = biological target: T3, Glucosylceramidase (Bos taurus) (UniProt Q2KHZ8); test: Inhibition of bovine liver beta-glucosidase at 1000 uM
T3 sequence (whole entry): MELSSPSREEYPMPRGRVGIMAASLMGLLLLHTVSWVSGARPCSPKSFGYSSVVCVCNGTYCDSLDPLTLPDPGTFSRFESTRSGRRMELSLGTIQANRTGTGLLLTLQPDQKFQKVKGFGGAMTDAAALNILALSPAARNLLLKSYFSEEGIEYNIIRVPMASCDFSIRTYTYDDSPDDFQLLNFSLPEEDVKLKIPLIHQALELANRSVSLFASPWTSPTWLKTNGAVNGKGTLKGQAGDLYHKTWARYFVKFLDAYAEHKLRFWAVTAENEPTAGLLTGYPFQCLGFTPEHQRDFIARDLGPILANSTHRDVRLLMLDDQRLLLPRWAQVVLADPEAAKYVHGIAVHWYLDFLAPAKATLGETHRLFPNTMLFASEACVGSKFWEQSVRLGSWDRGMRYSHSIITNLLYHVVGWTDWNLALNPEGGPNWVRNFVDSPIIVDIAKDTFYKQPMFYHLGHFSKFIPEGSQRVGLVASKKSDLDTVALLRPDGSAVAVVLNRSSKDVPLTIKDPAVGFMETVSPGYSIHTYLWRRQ

Rattus norvegicus [5] = organism: Rattus norvegicus; test: Inhibition of rat intestinal beta-galactosidase at 1000 uM
[6] = biological target: T4, Beta-galactosidase (Bos taurus) (UniProt Q58D55); test: Inhibition of bovine liver beta-galactosidase at 1000 uM
T4 sequence (whole entry): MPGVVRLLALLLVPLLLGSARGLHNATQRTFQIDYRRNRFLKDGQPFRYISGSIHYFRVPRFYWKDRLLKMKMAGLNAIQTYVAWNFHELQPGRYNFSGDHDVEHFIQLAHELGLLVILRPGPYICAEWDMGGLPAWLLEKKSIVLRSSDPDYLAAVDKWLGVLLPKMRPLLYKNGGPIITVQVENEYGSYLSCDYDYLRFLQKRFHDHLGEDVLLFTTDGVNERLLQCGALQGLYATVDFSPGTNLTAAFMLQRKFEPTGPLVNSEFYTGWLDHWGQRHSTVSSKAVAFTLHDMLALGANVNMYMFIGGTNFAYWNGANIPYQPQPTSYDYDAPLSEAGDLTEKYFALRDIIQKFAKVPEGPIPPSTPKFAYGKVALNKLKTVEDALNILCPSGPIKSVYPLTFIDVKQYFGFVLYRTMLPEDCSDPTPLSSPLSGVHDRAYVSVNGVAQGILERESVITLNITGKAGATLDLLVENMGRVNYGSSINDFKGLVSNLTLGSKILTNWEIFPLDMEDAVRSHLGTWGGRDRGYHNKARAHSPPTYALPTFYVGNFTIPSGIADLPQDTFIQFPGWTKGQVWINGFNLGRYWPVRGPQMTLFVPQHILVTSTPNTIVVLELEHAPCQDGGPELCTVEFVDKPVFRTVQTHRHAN

Coffea = test: Inhibition of coffee beans alpha-galactosidase at 1000 uM
Aspergillus niger [7] = test: Inhibition of Aspergillus niger beta-glucosidase at 1000 uM
Prunus dulcis = test: Inhibition of almond beta-glucosidase at 1000 uM
[8] = biological target: T5, Alpha-glucosidase (Aspergillus niger) (UniProt P56526); test: Inhibition of Aspergillus niger alpha-glucosidase at 1000 uM
T5 sequence (whole entry): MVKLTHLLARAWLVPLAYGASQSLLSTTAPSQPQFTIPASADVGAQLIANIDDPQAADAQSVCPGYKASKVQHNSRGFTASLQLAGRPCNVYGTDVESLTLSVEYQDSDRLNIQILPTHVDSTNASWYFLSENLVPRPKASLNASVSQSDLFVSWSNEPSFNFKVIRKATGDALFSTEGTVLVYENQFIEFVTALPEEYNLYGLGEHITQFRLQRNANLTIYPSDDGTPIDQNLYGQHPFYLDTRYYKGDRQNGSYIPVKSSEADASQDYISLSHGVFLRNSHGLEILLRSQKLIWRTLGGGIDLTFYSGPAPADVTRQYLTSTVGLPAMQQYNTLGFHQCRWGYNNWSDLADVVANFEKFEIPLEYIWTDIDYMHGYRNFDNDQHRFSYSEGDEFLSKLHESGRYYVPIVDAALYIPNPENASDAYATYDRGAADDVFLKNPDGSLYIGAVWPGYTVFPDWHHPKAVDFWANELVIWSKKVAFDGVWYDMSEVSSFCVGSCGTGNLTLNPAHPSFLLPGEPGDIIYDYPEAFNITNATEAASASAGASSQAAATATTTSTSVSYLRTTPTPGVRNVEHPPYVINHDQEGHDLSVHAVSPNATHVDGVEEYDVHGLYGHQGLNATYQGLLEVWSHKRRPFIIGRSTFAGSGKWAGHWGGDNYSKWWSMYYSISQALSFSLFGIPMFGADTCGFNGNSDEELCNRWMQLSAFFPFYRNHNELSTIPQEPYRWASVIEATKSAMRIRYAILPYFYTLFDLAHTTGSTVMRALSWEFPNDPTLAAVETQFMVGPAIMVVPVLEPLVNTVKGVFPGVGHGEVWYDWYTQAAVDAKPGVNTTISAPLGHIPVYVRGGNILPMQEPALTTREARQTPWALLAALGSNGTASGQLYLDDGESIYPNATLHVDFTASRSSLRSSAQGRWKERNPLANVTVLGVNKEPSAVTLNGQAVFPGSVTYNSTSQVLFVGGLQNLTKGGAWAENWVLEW

Saccharomyces cerevisiae = test: Inhibition of yeast alpha-glucosidase at 1000 uM
Rattus norvegicus [9] = organism: Rattus norvegicus; test: Inhibition of rat intestinal alpha-glucosidase at 1000 uM
Oryza sativa = test: Inhibition of rice alpha-glucosidase at 1000 uM
[10] = Inhibition of Aspergillus niger amyloglucosidase
[11] = Inhibition of rhizopus amyloglucosidase
[12] = biological target: T6, Tissue alpha-L-fucosidase (Bos taurus) (UniProt Q2KIM0); test: Inhibition of bovine alpha-L-fucosidase at 1000 uM
T6 sequence (whole entry): T2 sequence (Q2KIM0 whole entry)

[13] = Inhibition of Penicillium decumbens alpha-L-rhamnosidase
Alpha-glucosidase = biological target: T7, Alpha-glucosidase (Aspergillus niger, UniProt P56526); test: Inhibition of Aspergillus niger alpha-glucosidase
T7 sequence (P56526 whole entry): T5 sequence (whole entry)

[14] = Inhibition of rat beta-galactosidase
[15] = Inhibition of almond beta-glucosidase; design: species or system Prunus dulcis
[16] = Inhibition of rat intestinal alpha-glucosidase

Structure (SMILES): OC[C@H]1NC[C@@H](O)[C@H](O)[C@@H]1O
- inhibition (Rhizopus): 7%
- inhibition (Aspergillus niger [1]): 5%
- inhibition (Sus scrofa): 2.1%
- inhibition (Escherichia coli): 0%
- inhibition [2]: 7.4%
- inhibition (Penicillium decumbens): 2.1%
- IC50 [3]: 194 µM
- inhibition (Helix pomatia): 0%
- inhibition [4]: 10.9%
- inhibition (Rattus norvegicus [5]): 44.6%
- inhibition [6]: 19.9%
- inhibition (Coffea): 20.5%
- inhibition (Aspergillus niger [7]): 1.8%
- inhibition (Prunus dulcis): 18.8%
- inhibition [8]: 19.1%
- inhibition (Saccharomyces cerevisiae): 1.4%
- inhibition (Rattus norvegicus [9]): 24.2%
- inhibition (Oryza sativa): 7.2%

Structure (SMILES): O[C@H]1[C@H](O)CN2CCCC[C@H]12 [(-)-LENTIGINOSINE]
- IC50 [10]: 32 µM

Structure (SMILES): O[C@H]1[C@H](O)[C@@H](O)CN2CC[C@H](O)[C@H]12 [CASTANOSPERMINE]
- IC50 [10]: 8 µM

Structure (SMILES): O[C@@H]1[C@H](O)[C@H]2[C@@H](O)CCN2C[C@H]1O
- IC50 [10]: 8 µM

Structure (SMILES): O[C@H]1CCCN2C[C@H](O)[C@H]12
- IC50 [11]: 243 µM
- IC50 [10]: 930 µM
- inhibition (Sus scrofa): 1%
- inhibition (Escherichia coli): 13.2%
- inhibition [2]: 0%
- inhibition [12]: 0%
- IC50 [13]: 117 µM
- inhibition (Helix pomatia): 0%
- inhibition [4]: 9.7%
- inhibition (Rattus norvegicus [5]): 32.2%
- inhibition [6]: 14%
- inhibition (Coffea): 8.4%
- inhibition (Aspergillus niger [7]): 0%
- inhibition (Prunus dulcis): 0%
- IC50 (Alpha-glucosidase): 307 µM
- inhibition (Saccharomyces cerevisiae): 1.6%
- inhibition (Rattus norvegicus [9]): 14.3%
- inhibition (Oryza sativa): 0%

Structure (SMILES): O[C@@H]1[C@H](O)[C@H]2[C@@H](O)CN2C[C@H]1O [(3R,4S,5R,6R,7S)-3,4,5,7-TETRAHYDROXYCONIDINE]
- inhibition (Aspergillus niger [1]): 31.3%
- IC50 [11]: 532 µM
- inhibition (Sus scrofa): 9%
- inhibition (Escherichia coli): 0%
- inhibition [2]: 7.8%
- inhibition [12]: 2%
- inhibition (Penicillium decumbens): 2%
- inhibition (Helix pomatia): 0%
- IC50 [14]: 418 µM
- inhibition [4]: 18.9%
- inhibition [6]: 43.4%
- inhibition (Coffea): 3.5%
- inhibition (Aspergillus niger [7]): 1.8%
- inhibition (Prunus dulcis): 31.1%
- inhibition [8]: 47.3%
- inhibition (Saccharomyces cerevisiae): 0%
- inhibition (Rattus norvegicus [9]): 30.3%
- inhibition (Oryza sativa): 13.8%

Structure (SMILES): OC[C@H](O)[C@@H]1NC[C@@H]1O
- IC50 [11]: 19 µM
- IC50 [10]: 105 µM
- inhibition (Sus scrofa): 5.8%
- inhibition (Escherichia coli): 0%
- inhibition [2]: 7.4%
- inhibition [12]: 4.6%
- IC50 [13]: 634 µM
- inhibition (Helix pomatia): 0%
- IC50 [14]: 70 µM
- inhibition [6]: 25.2%
- inhibition (Coffea): 7.6%
- inhibition (Aspergillus niger [7]): 0.4%
- IC50 [15]: 347 µM
- IC50 (Alpha-glucosidase): 39 µM
- inhibition (Saccharomyces cerevisiae): 16%
- IC50 [16]: 607 µM
- inhibition (Oryza sativa): 12.1%

Structure (SMILES): O=C1CC[C@H](O)[C@H]2[C@@H](O)CN12
- inhibition (Rhizopus): 3.8%
- inhibition (Aspergillus niger [1]): 3%
- inhibition (Sus scrofa): 5.2%
- inhibition (Escherichia coli): 8.9%
- inhibition [2]: 4.2%
- inhibition [12]: 0%
- inhibition (Penicillium decumbens): 11.1%
- inhibition (Helix pomatia): 0%
- inhibition [4]: 14.9%
- inhibition (Rattus norvegicus [5]): 0%
- inhibition [6]: 13.4%
- inhibition (Coffea): 0%
- inhibition (Aspergillus niger [7]): 1.2%
- inhibition (Prunus dulcis): 0%
- inhibition [8]: 0%
- inhibition (Saccharomyces cerevisiae): 3.1%
- inhibition (Rattus norvegicus [9]): 25.2%
- inhibition (Oryza sativa): 2.7%
